{"source": "patent US20240139108A1", "about": "“ORAL PHARMACEUTICAL COMPOSITION OF ARSENIC TRIOXIDE” (INTAS PHARMACEUTICALS LTD., priority 2021, published 2024)", "origin": "cited, not measured here", "key": {"[1]": {"settings": "orally administered versus same amount administered intravenously"}}}
{"substance": "Diarsenic trioxide", "values": [{"measurement": "peak plasma concentration", "setting": "[1]", "result": "lower peak plasma concentration"}, {"measurement": "prolongation of the QT interval and ventricular tachycardia", "setting": "[1]", "result": "less prolongation of the QT interval and ventricular tachycardia"}, {"measurement": "solubility in water", "result": "low solubility in water"}]}
